Assay results published in PMC8548882, “The Trp-rich Antimicrobial Amphiphiles With Intramolecular Aromatic Interactions for the Treatment of Bacterial Infection” (Frontiers in Microbiology, 2021).
Ends that are not written are not given here.

Columns and labels:
[1] = test system: E. coli 25922; format: cell-based, Escherichia coli ATCC 25922
Source text: (§1) The tested strains were kindly provided by the laboratory of Veterinary Microbiology and Immunology, the College of Veterinary Medicine, Northeast Agricultural University (gram-negative bacteria, Salmonella enterica serovar typhimurium C77-31, Salmonella typhimurium ATCC 14028, Escherichia coli ATCC 25922, Pseudomonas aeruginosa ATCC 27853 and gram-positive bacteria, Staphylococcus aureus ATCC 29213, Staphylococcus aureus ATCC 43300, Staphylococcus epidermidis ATCC 12228, Staphylococcus aureus ATCC 25923).

[2] = test system: S. aureus ATCC 29213; assay: Transmission electron microscope; format: cell-based, Staphylococcus aureus ATCC 29213; conditions: MIC (2μM)
Source text: The sample for the test of the Transmission Electron Microscope (TEM) was to follow the same procedure as SEM. After the overnight pre-fixation with 2.5% glutaraldehyde, the bacteria was then post-fixed with 2% osmium tetroxide (sealed ampule, Shanghai, China). Afterward, the samples were dehydrated with ethanol at a series of concentrations (50, 70, 90, and 100%) and substituted the 100% ethanol with 50% ethanol+50% acetone, 100% acetone, 50% acetone+50% epoxy resin, and 100% epoxy resin successively. Finally, the samples were sectioned and stained for observation.

[3] = test system: human red blood cells (hRBCs); assay: Hemolytic activity; format: cell-based; conditions: hRBC; ratio of MHC to GM
Source text: The hemolytic activity of peptides was reflected by the releasing amount of hemoglobin from erythrocytes lysis induced by peptides ([Dong et al., 2014a]). The informed consent was obtained from the volunteers (3 healthy 25-year-old male volunteers) before the experiment. In brief, the human red blood cells (hRBCs), donated by volunteer, were collected, washed, and resuspended in PBS at pH 7.2. The peptides were serially diluted in PBS at different concentrations in a 96-well cell cultures plate and incubated with 50μl hRBCs for 1h at 37°C. The 0.1% Trition X-100 was selected as the treatment of positive control and the negative control was the hRBCs treated with PBS. After 1h incubation, the supernatant, obtained by centrifuging the plate 1,000g for 5min, was transferred to a brand-new plate for absorbance detection at 570nm. The releasing amount of hemoglobin was converted to the percent hemolysis against to 0.1% Triton X-100 treatment. The lowest concentration caused 5% hemolysis of hRBCs and was defined as the lowest hemolytic concentration of antimicrobial peptide.

[4] = test system: RAW 264.7 cells; format: cell-based, murine; conditions: RAW264.7; ratio of IC50 to GM
Procedure: (§2) The MTT (3-[4,5 dimethylthiozol-2-yl]-2,5-diphenylterazoliumbromide) dye was selected to analyze the cytotoxicity of peptides against the murine macrophage cell RAW 264.7 (National Collection of Authenticated Cell Cultures, Shanghai, China), human embryonic kidneys (HK293T), and the porcine intestinal epithelial cells (IPEC-J2) as in our previously study ([Li et al., 2020]). In short, the cells (10^4 cells/well) were seeded into 96-well plates and were cultivated overnight. Then the peptides with different final concentration (2μM, 4μM, 8μM, 16μM, 32μM, 64μM, and 128μM) were introduced into the plate and challenged with cells for 24h. After overnight incubation, the 50μl MTT (0.5mg/ml) was added into the cell cultures for 4h. Then the plate was centrifuged to discard the supernatants and obtain the formazan crystals. The DMSO (dimethyl sulfoxide) was employed as a solvent to dissolve the formazan crystals on the bottom of the plate and the optical density was read at 492nm with a microplate reader.

[5] = test system: Pseudomonas aeruginosa ATCC 27853; assay: Subcutaneous abscess model
Procedure: The in vivo antimicrobial performance of peptides was assessed by the treatment effect of the subcutaneous bacterial abscess model ([Pletzer et al., 2017]). In brief, 24 female ICR mice (weighted 18–20g, WeiTonglihua Co., Ltd. (Beijing)) were divided into four groups and each group contained 6 mice (n=6). […] Then, the Pseudomonas aeruginosa ATCC 27853 cells (100μl, 10^8CFU/ml) were injected into the subcutaneous layer of the dorsum skin. […] The non-infected mice served as a control, which was infected and treated with saline.
The therapeutic effect of peptides was further evaluated by colony counting, and the appearance and the level of inflammatory cytokine ([Tan et al., 2020]). The appearance of abscesses was taking photos and the area of dermonecrotic tissue was measured and calculated with calipers at Day 3. The infected skin on the back of the mouse was harvested entirely and homogenized with saline at Day 3. The homogenate of abscess was spread on the MHA plates and cultivated for 18–24h at 37°C. Then the bacterial colony was counted for data analysis. The serum was collected for proinflammatory cytokines (TNF-α, IL-1α, IL-1β, and IL-2) tests at Day 3. The cytokine levels were determined by commercial ELISA kits (Nanjing Jiancheng Bioengineering Institute, Nanjing, China).
The histopathology of abscesses lesions was further analyzed by hematoxylin/eosin (HE) staining (Aladdin, Shanghai, China). The tissue samples at Day 3 were excised and fixed in 4% paraformaldehyde solution. In addition, the cell nuclei were stained blue and the cytoplasm was stained pink.

[6] = test system: P. aeruginosa ATCC 27853; assay: Time-kill curve; format: cell-based, Pseudomonas aeruginosa ATCC 27853; conditions: 1×10^5CFU/ml, colony counting on MHA, mean of three assays
Procedure: The logarithmic phase bacterial cells (P. aeruginosa ATCC 27853 and S. aureus ATCC 29213) were harvested and diluted to 1×10^5CFU/ml ([Dou et al., 2017]). The testing peptides at different concentrations (1×MIC, 2×MIC, and 4×MIC) were challenged with bacteria at a series of time intervals (0, 5, 10, 30, 60, and 120min). Then the reaction system was diluted several times and plated on Mueller-Hinton agar (MHA, AoBoX, Shanghai, China) plates. The plates were incubated 24h at 37°C in order to count the bacterial colonies. The data were the means of three times independent assays.

[7] = test system: hRBC, IPEC-J2, HEK 293T, RAW264.7; conditions: hRBC, IPEC-J2, HEK 293T, RAW264.7; listed as F5
Procedure: Besides, the therapeutic index of peptide in the mammalian eukaryotic cell (RAW 264.7, HEK 293T, and IPEC J2) was also calculated to study the biocompatibility of peptides.

[8] = test system: S.epidermidis 12228; format: cell-based, Staphylococcus epidermidis ATCC 12228
Source text: as §1

[9] = test system: P.aeruginosa 27853; format: cell-based, Pseudomonas aeruginosa ATCC 27853; conditions: 27853
Source text: as §1
(§3) The famous microtiter dilution, National Committee for Clinical Laboratory Standards, was adopted to measure the antimicrobial ability of the engineering peptides ([Chou et al., 2016]). In brief, the 50μl with serial dilution was incubated with the same volume bacteria (1×10^5CFU/ml in midi-logarithmic phase) in a 96-well plate 18–24h at 37°C. The positive control was the bacteria treated with culture medium and the negative control was merely culture medium. The MICs (minimum inhibitory concentrations) were defined as the lowest concentration of peptides that prevented the production of visible turbidity ([Tossi et al., 2000]).

[10] = test system: panel of gram-negative and gram-positive bacteria; conditions: over the eight strains of Table 2
Procedure: as §3

[11] = test system: HEK 293T cells; format: cell-based, human; conditions: ratio of IC50 to GM
Procedure: as §2

[12] = test system: S.aureus 29213; format: cell-based, Staphylococcus aureus ATCC 29213; conditions: 29213
Source text: as §1, §3

[13] = test system: IPEC-J2 cells; format: cell-based, porcine; conditions: IPEC-J2; ratio of IC50 to GM
Procedure: as §2

## VKKWVKKWVKKWVKKW-NH2 [VW5]
[1]
  MIC: 2 µM
[2]
  ultrastructure (TEM): diffused around the shrunken cells
[3]
  Therapeutic index (TI): > 76.19
[4]
  Therapeutic index (TI): 1860.86
[5]; 5mg/kg intraperitoneally twice a day, Day 3, n=6
  bacterial load in the abscess lesion: 12.72±2.26 ×10^9CFU/abscess
[5]; 5mg/kg, Day 3, ELISA, saline 95.99±4.31
  IL-1β in serum: 72.36 ± 4.15 pg/mL
[5]; 5mg/kg, Day 3, ELISA, saline 99.95±4.71
  IL-1α in serum: 79.82 ± 4.79 pg/mL
[5]; 5mg/kg, Day 3, ELISA, saline 1020.654±51.08
  TNF-α in serum: 756.62 ± 39.12 pg/mL
[5]; 5mg/kg, Day 3, ELISA, saline 1492.65±48.11
  IL-2 in serum: 1296.25 ± 150.86 pg/mL
[5]; 5mg/kg, HE staining, Day 3
  histological examination of abscess lesion, dermal tissue structures: relative integrity
[6]; 2×MIC
  time to complete eradication of bacterial cells: 10 min
[6]; 4×MIC
  time to complete eradication of bacterial cells: 30 min
[7]
  GMTI, geometric mean of TI of various cell lines: > 1218.17
[8]
  MIC: 2 µM
[9]
  MIC: 1 µM
[10]
  GMMIC, geometric mean of the MICs: 1.68 µM
[11]
  Therapeutic index (TI): 5090.03
[12]
  MIC: 2 µM
[13]
  Therapeutic index (TI): 3051.34
